Molecular target: T1, human full-length MKNK1 (Homo sapiens, UniProt Q9BUB5, T385D)
T1 construct: purchased Carna Biosciences 02-145; host or cells: insect cells, baculovirus expression system
Assay: MKNK1 kinase high ATP assay (TR-FRET)
Assay type: biochemical
Details: high ATP (2 mM), 15 min preincubation with enzyme, GST-MKNK1 (T344D)
Procedure: MKNK1-inhibitory activity at high ATP of compounds of the present invention after their preincubation with MKNK1 was quantified employing the TR-FRET-based MKNK1 high ATP assay as described in the following paragraphs.
A recombinant fusion protein of Glutathione-S-Transferase (GST, N-terminally) and human full-length MKNK1 (amino acids 1-424 and T344D of accession number BAA 19885.1), expressed in insect cells using baculovirus expression system and purified via glutathione sepharose affinity chromatography, was purchased from Carna Biosciences (product no 02-145) and used as enzyme. As substrate for the kinase reaction the biotinylated peptide biotin-Ahx-IKKRKLTRRKSLKG (C-terminus in amide form) was used, which can be purchased e.g. from the company Biosyntan (Berlin-Buch, Germany).
For the assay 50 nL of a 100fold concentrated solution of the test compound in DMSO was pipetted into a black low volume 384well microtiter plate (Greiner Bio-One, Frickenhausen, Germany), 2 μL of a solution of MKNK1 in aqueous assay buffer [50 mM HEPES pH 7.5, 5 mM MgCl2, 1.0 mM dithiothreitol, 0.005% (v/v) Nonidet-P40 (Sigma)] was added and the mixture was incubated for 15 min at 22° C. to allow pre-binding of the test compounds to the enzyme before the start of the kinase reaction. Then the kinase reaction was started by the addition of 3 μL of a solution of adenosine-tri-phosphate (ATP, 3.3 mM=>final conc. in the 5 μL assay volume is 2 mM) and substrate (0.1 μM=>final conc. in the 5 μL assay volume is 0.06 μM) in assay buffer and the resulting mixture was incubated for a reaction time of 30 min at 22° C. The concentration of MKNK1 was adjusted depending of the activity of the enzyme lot and was chosen appropriate to have the assay in the linear range, typical concentrations were in the range of 0.003 μg/mL. The reaction was stopped by the addition of 5 μL of a solution of TR-FRET detection reagents (5 nM streptavidine-XL665 [Cisbio Bioassays, Codolet, France] and 1 nM anti-ribosomal protein […] (pSer236)-antibody from Invitrogen [#44921G] and 1 nM LANCE EU-W1024 labeled ProteinG [Perkin-Elmer, product no. AD0071]) in an aqueous EDTA-solution (100 mM EDTA, 0.1% (w/v) bovine serum albumin in 50 mM HEPES pH 7.5).
The resulting mixture was incubated for 1 h at 22° C. to allow the formation of complex between the phosphorylated biotinylated peptide and the detection reagents. Subsequently the amount of phosphorylated substrate was evaluated by measurement of the resonance energy transfer from the Eu-chelate to the streptavidine-XL. Therefore, the fluorescence emissions at 620 nm and 665 nm after excitation at 350 nm were measured in a TR-FRET reader, e.g. a Rubystar (BMG Labtechnologies, Offenburg, Germany) or a Viewlux (Perkin-Elmer). The ratio of the emissions at 665 nm and at […] was taken as the measure for the amount of phosphorylated substrate. The data were normalised (enzyme reaction without inhibitor=0% inhibition, all other assay components but no enzyme=100% inhibition).

T1 sequence (Q9BUB5 1-424 isoform Q9BUB5-2 T344D): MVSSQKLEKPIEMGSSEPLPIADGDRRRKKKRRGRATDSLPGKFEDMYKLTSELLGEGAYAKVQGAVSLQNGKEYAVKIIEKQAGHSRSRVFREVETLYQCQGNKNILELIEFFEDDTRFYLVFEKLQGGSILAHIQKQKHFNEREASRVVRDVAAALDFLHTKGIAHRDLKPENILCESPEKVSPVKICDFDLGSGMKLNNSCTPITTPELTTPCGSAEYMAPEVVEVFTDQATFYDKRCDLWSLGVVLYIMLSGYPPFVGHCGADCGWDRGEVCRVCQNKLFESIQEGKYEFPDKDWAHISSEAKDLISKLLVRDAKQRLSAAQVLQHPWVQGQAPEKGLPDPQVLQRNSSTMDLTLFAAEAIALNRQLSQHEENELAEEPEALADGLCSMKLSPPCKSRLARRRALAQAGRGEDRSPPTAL

Row | Structure (SMILES) | IC50 [µM]
1 | CS(=O)(=O)CCCNC(=O)C1CCc2[nH]c3ncnc(Nc4ccc5c(c4)C(=O)OC5)c3c2C1 (racemic) [Example 46, (RS)—N-[3-(Methylsulfonyl)propyl]-4-[(3-oxo-1,3-dihydro-2-benzofuran-5-yl)amino]-6,7,8,9-tetrahydro-5H-pyrimido[4,5-b]indole-6-carboxamide] | 2.24
2 | Cc1ccc(Nc2ncnc3[nH]c4c(c23)CC(C(=O)NCCCS(C)(=O)=O)CC4)c(OC(F)F)c1 (racemic) [Example 156, (RS)-4-{[2-(Difluoromethoxy)-4-methylphenyl]amino}-N-[3-(methylsulfonyl)propyl]-6,7,8,9-tetrahydro-5H-pyrimido[4,5-b]indole-6-carboxamide] | ≥ 20
3 | CCNC(=O)C1CCc2[nH]c3ncnc(Nc4cc(Cl)c(Cl)cc4OC)c3c2C1 (racemic) [Example 21, (RS)-4-[(4,5-Dichloro-2-methoxyphenyl)amino]-N-ethyl-6,7,8,9-tetrahydro-5H-pyrimido[4,5-b]indole-6-carboxamide] | 0.012
4 | COc1cc2[nH]c(=O)sc2cc1Nc1ncnc2[nH]c3c(c12)CC(F)(F)CC3 [Example 238, 6-[(6,6-Difluoro-6,7,8,9-tetrahydro-5H-pyrimido[4,5-b]indol-4-yl)amino]-5-methoxy-1,3-benzothiazol-2(3H)-one] | 0.01
5 | CC(C)Oc1cc(F)ccc1Nc1ncnc2[nH]c3c(c12)CS(=O)(=O)CC3 [Example 84, N-(4-Fluoro-2-isopropoxyphenyl)-5,7,8,9-tetrahydrothiopyrano[3′,4′:4,5]pyrrolo[2,3-d]pyrimidin-4-amine 6,6-dioxide] | 0.082
6 | COc1cc2[nH]ncc2cc1Nc1ncnc2[nH]c3c(c12)CC(F)(F)CC3 [Example 141] | 0.006
7 | COc1cc2[nH]c(=O)[nH]c2cc1Nc1ncnc2[nH]c3c(c12)CC(C(=O)NCCCS(C)(=O)=O)CC3 (racemic) [Example 164, (RS)-4-[(6-Methoxy-2-oxo-2,3-dihydro-1H-benzimidazol-5-yl)amino]-N-[3-(methylsulfonyl)propyl]-6,7,8,9-tetrahydro-5H-pyrimido[4,5-b]indole-6-carboxamide] | 0.225
8 | COCC1(OC)CCc2[nH]c3ncnc(Nc4cc(Cl)c(Cl)cc4OC)c3c2C1 (racemic) [Example 140] | 0.339
9 | CS(=O)(=O)CCCNC(=O)C1CCc2[nH]c3ncnc(Nc4ccccc4OC(F)F)c3c2C1 (racemic) [Example 154, (RS)-4-{[2-(Difluoromethoxy)phenyl]amino}-N-[3-(methylsulfonyl)propyl]-6,7,8,9-tetrahydro-5H-pyrimido[4,5-b]indole-6-carboxamide] | 0.469
10 | COCC1(OC)CCc2[nH]c3ncnc(Nc4cc(Cl)ccc4OC(C)C)c3c2C1 (racemic) [Example 132] | 0.503
11 | c1nc(Nc2ccc3[nH]ncc3c2)c2c3c([nH]c2n1)CCC3 [Example 69, N-(1H-Indazol-5-yl)-5,6,7,8-tetrahydrocyclopenta[4,5]pyrrolo[2,3-d]pyrimidin-4-amine] | 0.507
12 | CS(=O)(=O)CCCNC(=O)C1CCc2[nH]c3ncnc(N4CCc5ccccc54)c3c2C1 (racemic) [Example 168, (RS)-4-(2,3-Dihydro-1H-indol-1-yl)-N-[3-(methylsulfonyl)propyl]-6,7,8,9-tetrahydro-5H-pyrimido[4,5-b]indole-6-carboxamide] | 0.803
13 | COCC1(OC)CCc2[nH]c3ncnc(Nc4ccc5[nH]c(=O)sc5c4)c3c2C1 (racemic) [Example 138] | 0.358
14 | O=C(Nc1ccccc1)C1CCc2[nH]c3ncnc(Nc4ccccc4N4CCOCC4)c3c2C1 (racemic) [Example 205, (RS)-4-{[2-(Morpholin-4-yl)phenyl]amino}-N-phenyl-6,7,8,9-tetrahydro-5H-pyrimido[4,5-b]indole-6-carboxamide] | 0.242
15 | CN(C)C(=O)C1CCc2[nH]c3ncnc(Nc4ccccc4OC4CCCC4)c3c2C1 (racemic) [Example 188, (RS)-4-{[2-(Cyclopentyloxy)phenyl]amino}-N,N-dimethyl-6,7,8,9-tetrahydro-5H-pyrimido[4,5-b]indole-6-carboxamide] | 0.71
16 | CC(C)Oc1ccc(Nc2ncnc3[nH]c4c(c23)CC(C(=O)NCCCS(C)(=O)=O)CC4)cc1 (racemic) [Example 35, (RS)—N-[3-(Methylsulfonyl)propyl]-4-{[4-(propan-2-yloxy)phenyl]amino}-6,7,8,9-tetrahydro-5H-pyrimido[4,5-b]indole-6-carboxamide] | 9.66
17 | COCC1(OC)CCc2[nH]c3ncnc(Nc4cc5cn[nH]c5cc4OC)c3c2C1 (racemic) [Example 136] | 0.048
18 | CC(C)Oc1ccc(Cl)cc1Nc1ncnc2[nH]c3c(c12)CC(C(=O)O)CC3 (racemic) [Example 234, (RS)-4-{[5-Chloro-2-(propan-2-yloxy)phenyl]amino}-6,7,8,9-tetrahydro-5H-pyrimido[4,5-b]indole-6-carboxylic acid] | 0.288
19 | CC(C)Oc1cc(F)ccc1Nc1ncnc2[nH]c3c(c12)CC(C(=O)NCCCS(C)(=O)=O)CC3 (racemic) [Example 28, (RS)-4-{[4-Fluoro-2-(propan-2-yloxy)phenyl]amino}-N-[3-(methylsulfonyl)propyl]-6,7,8,9-tetrahydro-5H-pyrimido[4,5-b]indole-6-carboxamide] | 0.008
20 | O=C(C1CCc2[nH]c3ncnc(Nc4ccc5[nH]ncc5c4)c3c2C1)N1CC(F)(F)C1 (racemic) [Example 17, (RS)-(3,3-Difluoroazetidin-1-yl)[4-(1H-indazol-5-ylamino)-6,7,8,9-tetrahydro-5H-pyrimido[4,5-b]indol-6-yl]methanone] | 0.046
21 | CS(=O)(=O)CCCNC(=O)C1CCc2[nH]c3ncnc(Nc4ccc(F)c5[nH]c(=O)ccc45)c3c2C1 (racemic) [Example 82, (RS)-4-[(8-Fluoro-2-oxo-1,2-dihydroquinolin-5-yl)amino]-N-[3-(methylsulfonyl)propyl]-6,7,8,9-tetrahydro-5H-pyrimido[4,5-b]indole-6-carboxamide] | 10.5
22 | O=C(NC1CC1)C1CCc2[nH]c3ncnc(Nc4ccccc4OC4CCCC4)c3c2C1 (racemic) [Example 191, (RS)-4-{[2-(Cyclopentyloxy)phenyl]amino}-N-cyclopropyl-6,7,8,9-tetrahydro-5H-pyrimido[4,5-b]indole-6-carboxamide] | 0.171
23 | COCC1(OC)CCc2[nH]c3ncnc(Nc4ccc5[nH]ncc5c4)c3c2C1 (racemic) [Example 135] | 0.167
24 | CS(=O)(=O)CCCNC(=O)C1CCc2[nH]c3ncnc(Nc4cccc5c4OC(F)(F)O5)c3c2C1 (racemic) [Example 60, (RS)-4-[(2,2-Difluoro-1,3-benzodioxol-4-yl)amino]-N-[3-(methylsulfonyl)propyl]-6,7,8,9-tetrahydro-5H-pyrimido[4,5-b]indole-6-carboxamide] | 1.36
25 | CCNC(=O)C1CCc2[nH]c3ncnc(Nc4cc5cn[nH]c5cc4OC)c3c2C1 (racemic) [Example 218, (RS)—N-Ethyl-4-[(6-methoxy-1H-indazol-5-yl)amino]-6,7,8,9-tetrahydro-5H-pyrimido[4,5-b]indole-6-carboxamide] | 0.006
26 | c1ccc(OC2CCCC2)c(Nc2ncnc3[nH]c4c(c23)CCCC4)c1 [Example 116] | ≥ 20
